From patent US7432392B2, “Ester derivatives and medical use thereof” (Japan Tobacco Inc., priority 2003, dated 2008)

Molecular target: T1, Microsomal triglyceride transfer protein (MTP) from bovine liver (Bos taurus, UniProt P55156)
T1 construct: the purified MTP was used for the test; from tissue; host or cells: bovine liver
T1 sequence (P55156 12-887): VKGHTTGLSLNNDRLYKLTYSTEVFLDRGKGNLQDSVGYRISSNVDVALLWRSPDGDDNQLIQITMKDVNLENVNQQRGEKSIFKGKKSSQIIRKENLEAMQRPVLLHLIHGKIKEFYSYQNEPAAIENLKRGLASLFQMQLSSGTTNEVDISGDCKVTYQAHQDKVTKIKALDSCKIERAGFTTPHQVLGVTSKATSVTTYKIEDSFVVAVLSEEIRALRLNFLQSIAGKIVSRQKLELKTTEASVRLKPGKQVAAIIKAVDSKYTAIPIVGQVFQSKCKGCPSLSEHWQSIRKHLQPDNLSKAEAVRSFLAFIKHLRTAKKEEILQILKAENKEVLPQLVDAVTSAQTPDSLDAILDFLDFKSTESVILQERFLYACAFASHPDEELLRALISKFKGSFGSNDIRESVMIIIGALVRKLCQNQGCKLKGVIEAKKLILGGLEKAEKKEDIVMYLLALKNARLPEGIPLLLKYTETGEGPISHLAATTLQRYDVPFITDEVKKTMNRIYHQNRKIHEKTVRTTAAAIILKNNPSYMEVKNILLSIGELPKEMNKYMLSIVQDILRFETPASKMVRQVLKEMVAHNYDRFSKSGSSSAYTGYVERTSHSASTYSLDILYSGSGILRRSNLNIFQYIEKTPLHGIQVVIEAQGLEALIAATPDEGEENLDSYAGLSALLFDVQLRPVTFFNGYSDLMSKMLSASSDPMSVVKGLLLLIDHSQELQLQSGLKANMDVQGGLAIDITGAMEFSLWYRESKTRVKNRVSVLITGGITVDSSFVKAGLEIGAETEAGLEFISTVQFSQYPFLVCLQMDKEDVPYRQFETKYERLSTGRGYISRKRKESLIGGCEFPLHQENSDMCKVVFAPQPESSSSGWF
T1 sequence (P05307 21-510 partner): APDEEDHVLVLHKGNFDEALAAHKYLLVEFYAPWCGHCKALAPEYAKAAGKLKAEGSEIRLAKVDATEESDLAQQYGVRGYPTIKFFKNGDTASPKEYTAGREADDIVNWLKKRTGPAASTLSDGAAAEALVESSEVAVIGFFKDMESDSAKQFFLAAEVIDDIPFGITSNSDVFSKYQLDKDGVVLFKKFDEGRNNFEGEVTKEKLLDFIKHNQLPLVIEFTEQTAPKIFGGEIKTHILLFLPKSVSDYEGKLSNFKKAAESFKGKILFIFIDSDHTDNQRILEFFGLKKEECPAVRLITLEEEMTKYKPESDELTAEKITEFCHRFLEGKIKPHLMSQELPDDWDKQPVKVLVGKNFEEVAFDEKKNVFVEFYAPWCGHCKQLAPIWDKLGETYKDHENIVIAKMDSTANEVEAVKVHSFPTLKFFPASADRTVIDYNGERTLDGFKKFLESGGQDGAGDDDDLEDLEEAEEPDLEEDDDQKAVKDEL
Assay: Inhibition of interliposomal triglyceride (TG) transfer activity by MTP
Assay type: biochemical
Conditions: MTP-mediated TG transfer between donor and acceptor liposomes, 37° C., one hour
Experimental: Microsomal triglyceride transfer protein (MTP) from bovine liver was partially purified in such a way described below. A buffer (50 mM Tris, 250 mM sucrose, 1 mM EDTA, 0.02% NaN3 (pH 7.4)) for making a homogenate preparation was added to bovine liver, and the mixture was homogenated under ice-cooling, then centrifuged at 10,000×g (4° C., 30 minutes) The supernatant was adjusted to pH 5.1 with hydrochloric acid, and stirred for 30 minutes. The solution was further centrifuged at 10,000×g (4° C., 30 minutes), and 1 mM Tris buffer was added to the precipitated residue, and the mixture was adjusted to pH 8.6 with sodium hydroxide. After addition of 2.7 M ammonium sulfate solution, the mixture was stirred for 30 minutes, then centrifuged at 10,000×g (4° C., 40 minutes). The resulting supernatant was served as a crude extraction fraction of MTP and stored at −80° C. under freezing. In its practical use, the crude extraction fraction of MTP was purified by column chromatography on diethylaminoethyl (DEAE) Sepharose using FPLC (Fast Performance Liquid Chromatography) system, and the purified MTP was used for the test.
Small unilamellar-vesicle (SUV) liposome (donor, 0.25 mol % triolein, 5 mol % cardiolipin) labeled with ^14C-triolein and non-labeled SUV liposome (acceptor, 0.25 mol % triolein) were prepared. A fixed amount of donor and acceptor, and MTP were mixed with a sample dissolved in DMSO or with DMSO. The mixture was incubated in a 15 mM Tris hydrochloride buffer (pH 7.4) containing 40 mM sodium chloride, 1 mM EDTA (ethylenediaminetetraacetic acid), 0.02% NaN3 and 0.5% bovine serum albumin at 37° C. for one hour. After completion of the incubation, a suspension of DEAE cellulose (50% v/v) in 15 mM Tris hydrochloride buffer (pH 7.4) was added to the above solution, and the mixture was centrifuged to separate the donor and the acceptor. The radioactivity in the acceptor was measured by liquid scintillation counter. The value obtained by subtracting the radioactivity in the blank from the amount of radioactivity in the acceptor of a DMSO group was determined as MTP-mediated TG transfer activity, and it was compared with the value obtained by subtracting the radioactivity in the blank from the radioactivity in a sample group. The blank was prepared by adding 15 mM Tris-HCl buffer (pH 7.4) in place of MTP. Inhibition rate (%) was calculated from the values obtained according to the following equation.
Inhibition rate (%)=100×(1 minus ((radioactivity of sample group minus radioactivity of blank group)/(radioactivity of DMSO group minus radioactivity of blank group))). 50% Inhibition rate (IC50) was determined on the basis of the above equation.

| SMILES | IC50 [nM] |
| --- | --- |
| CCNC(=O)C(COCC(=O)OCc1ccc(NC(=O)c2ccccc2-c2ccc(C(F)(F)F)cc2)c(C(=O)N(C)C)c1)(C(=O)NCC)c1ccccc1 [Example 3-24] | < 10 |
| CCOC(=O)C(COC(=O)Oc1ccc2c(c1)N(C(C)C)C(=O)CN2C(=O)c1ccccc1-c1ccc(C(F)(F)F)cc1)(C(=O)OCC)c1ccccc1 [Example 2-2, 2-[4-Isopropyl-3-oxo-1-(4′-trifluoromethylbiphenyl-2-carbonyl)-1,2,3,4-tetrahydroquinoxalin-6-yloxycarbonyloxymethyl]-2-phenylmalonic acid diethyl ester] | < 10 |
| CCOC(=O)C(COC(=O)Oc1ccc(NC(=O)c2ccccc2-c2ccc(C(F)(F)F)cc2)c(C(=O)N(C)C)c1Cl)(C(=O)OCC)c1ccccc1 [Example 2-22] | < 10 |
| CCOC(=O)C(COC(=O)Oc1ccc(NC(=O)c2ccccc2-c2ccc(C(F)(F)F)cc2)c(C(=O)N(C)CC)c1)(C(=O)OCC)c1ccccc1 [Example 2-12] | < 10 |
| CCCC(=O)Oc1cc(CC(=O)OCC(C(=O)OCC)(C(=O)OCC)c2ccccc2)ccc1NC(=O)c1ccc(C)cc1-c1ccc(C(F)(F)F)cc1 [Example 1-7] | < 10 |
| CCOC(=O)C(COC(=O)OCc1ccc(NC(=O)c2ccccc2-c2ccc(C(F)(F)F)cc2)c(C(=O)N(C)C)c1)(C(=O)OCC)c1ccccc1 [Example 2-5] | < 10 |
| CCOC(=O)C(COC(=O)Oc1c(F)cc(NC(=O)c2cccc(F)c2-c2ccc(C(F)(F)F)cc2)c(C(=O)N(C)C)c1F)(C(=O)OCC)c1cccs1 [Example 2-33] | < 10 |
| CCOC(=O)C(CC(=O)OCc1ccc(NC(=O)c2ccccc2-c2ccc(C(F)(F)F)cc2)c(C(=O)N(C)C)c1)(C(=O)OCC)c1ccccc1 [Example 3-5] | < 10 |
| CCOC(=O)C(COC(=O)Oc1c(F)cc(NC(=O)c2ccccc2-c2ccc(C(F)(F)F)cc2)c(OC(=O)N(C)C)c1F)(C(=O)OCC)c1cccs1 [Example 2-50] | 10 to 100 |
| CCOC(=O)C(COC(=O)Oc1c(F)cc(NC(=O)c2cccc(OC)c2-c2ccc(C(F)(F)F)cc2)c(C(=O)N(C)C)c1F)(C(=O)OCC)c1cccs1 [Example 2-36] | < 10 |
| CCOC(=O)C(COC(=O)Oc1ccc(NC(=O)c2cnc(N(C)C)nc2-c2ccc(C(F)(F)F)cc2)c(C(=O)N(C)C)c1)(C(=O)OCC)c1ccccc1 [Example 2-28] | < 10 |
| CCOC(=O)C(COC(=O)Oc1ccc2c(c1)CCN2C(=O)c1ccccc1-c1ccc(C(F)(F)F)cc1)(C(=O)OCC)c1ccccc1 [Example 2-3] | 10 to 100 |
| CCOC(=O)C(COC(=O)Oc1c(F)cc(NC(=O)c2c(C)cccc2-c2ccc(C(F)(F)F)cc2)c(C(=O)N(C)C)c1F)(C(=O)OCC)c1cccs1 [Example 2-39] | < 10 |
| CCOC(=O)C(COC(=O)Oc1c(F)cc(NC(=O)c2ccccc2-c2ccc(C(F)(F)F)cc2)c(C(=O)N2CCOCC2)c1F)(C(=O)OCC)c1cccs1 [Example 2-38] | 10 to 100 |
| CCOC(=O)C(COC(=O)Oc1ccc(NC(=O)c2ccc(C(F)(F)F)nc2-c2ccc(C(F)(F)F)cc2)c(C(=O)N(C)C)c1)(C(=O)OCC)c1ccccc1 [Example 2-16] | < 10 |
| CCOC(=O)C(COC(=O)Oc1c(F)cc(NC(=O)c2ccccc2-c2ccc(C(F)(F)F)cc2)c(C(=O)N(C)C)c1F)(C(=O)OCC)c1nccs1 [Example 2-44] | 10 to 100 |
| CCOC(=O)C(CC(=O)OCc1ccc(NC(=O)c2ccccc2-c2ccc(C(F)(F)F)cc2)c(C(=O)N(C)C)c1)(C(=O)OCC)c1ccccn1 [Example 3-23] | < 10 |
| CCOC(=O)C(COC(=O)Oc1ccc(NC(=O)c2ccccc2-c2ccc(C(F)(F)F)cc2)c(C(=O)N(C)C)c1)(C(=O)OCC)c1cccs1 [Example 2-7] | < 10 |
| CCNC(=O)C(CCCC(=O)Oc1c(F)cc(NC(=O)c2ccccc2-c2ccc(C(F)(F)F)cc2)c(C(=O)N(C)C)c1F)(C(=O)NCC)c1cccs1 [Example 3-17] | 10 to 100 |
| CCOC(=O)C(CCC(=O)OCc1ccc(NC(=O)c2ccccc2-c2ccc(C(F)(F)F)cc2)c(C(=O)N(C)C)c1)(C(=O)OCC)c1ccccc1 [Example 3-7] | < 10 |
| CCOC(=O)C(COC(=O)Oc1ccc(N(C)C(=O)c2ccccc2-c2ccc(C(F)(F)F)cc2)c(C(=O)N(C)C)c1)(C(=O)OCC)c1ccccc1 [Example 2-17] | 100 to 1000 |
| CCNC(=O)C(COC(=O)Oc1cc(C(=O)N(C)C)c(NC(=O)c2ccccc2-c2ccc(C(F)(F)F)cc2)cc1F)(C(=O)NCC)c1ccccc1 [Example 2-11] | 100 to 1000 |
| CCNC(=O)C(COCCC(=O)Oc1ccc(NC(=O)c2ccccc2-c2ccc(C(F)(F)F)cc2)c(C(=O)N(C)C)c1)(C(=O)NCC)c1ccccc1 [Example 3-3, 3-(2,2′-Bisethylcarbamoyl-2-phenylethoxy)propionic acid 3-dimethylcarbamoyl-4-[(4′-trifluoromethylbiphenyl-2-carbonyl)amino]phenyl ester] | < 10 |
| CCOC(=O)C(COC(=O)Oc1cc(C(=O)N(C)C)c(NC(=O)c2ccccc2-c2ccc(C(F)(F)F)cc2)cc1Cl)(C(=O)OCC)c1ccccc1 [Example 2-6] | < 10 |
| CCOC(=O)C(COC(=O)Oc1c(F)cc(NC(=O)c2ccc(C)nc2-c2ccc(C(F)(F)F)cc2)c(C(=O)N(C)C)c1F)(C(=O)OCC)c1cccs1 [Example 2-30] | < 10 |
| CCOC(=O)C(CCC(=O)Oc1ccc(NC(=O)c2ccccc2-c2ccc(C(F)(F)F)cc2)c(C(=O)N(C)C)c1)(C(=O)OCC)c1ccccc1 [Example 3, 2-Ethoxycarbonyl-2-phenylpentanedioic acid 5-{3-dimethylcarbamoyl-4-[(4′-trifluoromethylbiphenyl-2-carbonyl)amino]phenyl}ester 1-ethyl ester] | < 10 |
| CCNC(=O)C(COCCC(=O)Oc1c(F)cc(NC(=O)c2ccccc2-c2ccc(C(F)(F)F)cc2)c(C(=O)N(C)C)c1F)(C(=O)NCC)c1ccccc1 [Example 3-16] | < 10 |
| CCOC(=O)C(COC(=O)Cc1ccc(NC(=O)c2ccc(C)cc2-c2ccc(C(F)(F)F)cc2)c(OC(=O)CC)c1)(C(=O)OCC)c1ccccc1 [Example 1-6] | < 10 |
| CCOC(=O)C(COC(=O)Oc1c(F)cc(NC(=O)c2ccccc2-c2ccc(C(F)(F)F)cc2)c(OCC)c1F)(C(=O)OCC)c1cccs1 [Example 2-51] | < 10 |
| CCNC(=O)C(COC(=O)Oc1ccc(NC(=O)c2ccccc2-c2ccc(C(F)(F)F)cc2)c(C(=O)N(C)C)c1)(C(=O)NCC)c1ccccc1 [Example 2-10] | < 10 |
